Experimental data: patent US20100068150A1, “Selective Caspase Inhibitors” (The Board of Trustees of the Leland Stanford Junior …, priority 2006, published 2010)
Blank lines part the entries; values can stand above or below the molecule they belong to. Residues, ends and D or L forms follow the SMILES beside them. *: point of attachment. Cbz = O=C(OCc1ccccc1)*; CH2F = FC*

Tests used:
[1] = target: T1, mature p20 forms of caspase-7 (Homo sapiens, UniProt P55210); test: Inhibitor specificity in hypotonic 293 extracts, mature p20 caspase-7; type: biochemical; details: inhibitor 20 μM for 5 min, then KMB01 30 min
T1 construct: p20 is mature large subunit of caspase-7 with N-terminal peptide removed; processing of the zymogen to the large and small subunits by activity of the initiator caspases; endogenous in cells
T1 sequence (P55210 24-198 limits assumed): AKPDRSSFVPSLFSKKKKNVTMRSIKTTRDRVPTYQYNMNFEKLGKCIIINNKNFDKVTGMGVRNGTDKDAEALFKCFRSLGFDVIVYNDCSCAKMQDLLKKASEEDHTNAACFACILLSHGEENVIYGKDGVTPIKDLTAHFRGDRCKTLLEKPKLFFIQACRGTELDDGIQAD
T1 sequence (P55210 207-303 limits assumed): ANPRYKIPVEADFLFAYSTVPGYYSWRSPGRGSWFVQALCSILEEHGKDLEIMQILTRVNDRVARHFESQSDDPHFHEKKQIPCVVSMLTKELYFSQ
Description: (§1) FIGS. 6 A-E illustrate that full-length active caspase-7 has unique inhibitor specificity and is processed to mature forms by downstream executioner caspases. (A) The caspase-3 specific inhibitor causes accumulation of a catalytically active full-length form of caspase-7. Cytosolic extracts from 293 cells were activated with cytochrome c/dATP for the indicated times followed by labeling with KMB01 (left panel) and western blotting with a caspase-7 specific antibody (right panel) as in FIG. 5A. […] (B) The exact same experiment as (A) except extracts from MCF-7 cells were used in place of 293 extracts. (**) indicates forms of caspase-7 that are likely a result of the alternative transcription start site at methionine-45 (C) Quantification of the relative activity of FL-C7 in uninhibited 293 extracts (from FIG. 5A), AB06 treated 293 extracts (from (A)) and uninhibited MCF-7 extracts (from (B)) (D) Inhibitor specificity of full-length and processed forms of caspase-7. Extracts (293) were activated for 5 min with cytochrome c/dATP and then incubated with NP-capped AOMK inhibitors containing the indicated primary amino acid sequences for 5 minutes before KMB01 was added and allowed to label residual caspase active sites for 30 minutes. Samples were analyzed by SDS-PAGE followed by biotin blotting using strepavidin-HRP (left panel) or western blotting for caspase-7 (right panel). Identities of labeled caspases are indicated. (E) Specificity of AB06 after prolonged incubation times. Extracts were treated with AB06 at the indicated concentrations simultaneously with cytochrome c/dATP. At the indicated times after activation, samples were labeled with KMB01 (10 μM) for 30 minutes. Labeled caspases were resolved by SDS-PAGE analysis followed by biotin blotting using strepavidin-HRP.
An additional surprising finding from the inhibitor studies was the overall lack of inhibition of the FL-C7 species by AB06 relative to mature p20 forms of caspase-7. This was surprising since the sequence of AB06 (NP-D3VD-AOMK) differs from the KMB01 probe sequence (Bio-EVD-AOMK) only at the P3 residue. […] We therefore wanted to use inhibitors to compare the ability of different P3 elements to bind to full-length and p20 mature forms of caspase-7. […] Samples were analyzed for active site labeling and protein levels of both full-length and p20 forms of caspase-7 were monitored by western blot (FIG. 6D).
(§2) Hypotonic 293 extracts (73 μg of total protein) were activated at 37° C. for 5 minutes as described above. […] Samples (13.5 μg total protein) were analyzed by SDS-PAGE and biotin blotting as described above

[2] = target: T2, FL-C7 (full-length caspase-7) (Homo sapiens, UniProt P55210); test: Inhibitor specificity in hypotonic 293 extracts, full-length caspase-7; type: biochemical; details: inhibitor 20 μM for 5 min, then KMB01 30 min
T2 construct: the p37 band as the full-length caspase-7 with intact N-terminus (FL-C7); endogenous in cells
T2 sequence (P55210 1-303): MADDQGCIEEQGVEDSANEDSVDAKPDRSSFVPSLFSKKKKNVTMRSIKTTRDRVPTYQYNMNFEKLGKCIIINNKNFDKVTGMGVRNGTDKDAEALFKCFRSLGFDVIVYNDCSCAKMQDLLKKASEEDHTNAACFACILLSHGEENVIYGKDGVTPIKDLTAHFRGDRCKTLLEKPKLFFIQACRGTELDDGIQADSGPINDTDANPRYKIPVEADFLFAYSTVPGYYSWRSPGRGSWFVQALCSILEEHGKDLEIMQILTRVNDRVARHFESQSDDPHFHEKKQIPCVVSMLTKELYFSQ
Description: as §1
To further confirm our assignment of the labeled species we treated samples at various activation times with purified recombinant Bir3 domain of XIAP. […]
An additional surprising finding from the inhibitor studies was the overall lack of inhibition of the FL-C7 species by AB06 relative to mature p20 forms of caspase-7. […] Samples were analyzed for active site labeling and protein levels of both full-length and p20 forms of caspase-7 were monitored by western blot (FIG. 6D).
Hypotonic 293 extracts (73 μg of total protein) were activated as described above and allowed to incubate for the indicated times. […] Labeling was carried out for an additional 30 minutes and samples (13.5 μg total protein) were analyzed by SDS-PAGE and biotin blotting as described above.
as §2

cathepsin B and legumain = test: In vivo labeling of cathepsin B and legumain in kidney and spleen of normal mice; details: intravenous, tissues collected 2 hrs after injection
Description: The present selective caspase inhibitors may be used for in vivo imaging. Cy5-fluorescent labeled versions of AB46 and AB50 were injected into normal mice and labeling of cathepsins and legumain in kidney and spleen was monitored (FIG. 14).
Normal mice were intravenously injected with the probes and tissues were collected 2 hrs after injection. Tissues were homogenized and total protein samples were analyzed by SDS-PAGE followed by scanning of the gel using a fluorescent scanner.

[3] = system: legumain and cathepsin B in RAW cell extracts; test: Direct labeling of RAW cell extracts with Cy5 probes; type: binding; details: varying concentrations
Description: Cy5 fluorescently labeled versions of the three best caspase probes were compared in direct labeling experiments using recombinant caspase-3 (FIG. 13, bottom panels) and RAW cell extracts (FIG. 13, top panels). […] All probes have similar reactivity towards recombinant caspase-3.

Caspase-9 = target: T3, Caspase-9 (Homo sapiens, UniProt P55211); test: Kinetic compound screening, progress curve method, caspase-9; type: biochemical; details: NI = no inhibition at concentrations tested
T3 sequence (P55211 1-416): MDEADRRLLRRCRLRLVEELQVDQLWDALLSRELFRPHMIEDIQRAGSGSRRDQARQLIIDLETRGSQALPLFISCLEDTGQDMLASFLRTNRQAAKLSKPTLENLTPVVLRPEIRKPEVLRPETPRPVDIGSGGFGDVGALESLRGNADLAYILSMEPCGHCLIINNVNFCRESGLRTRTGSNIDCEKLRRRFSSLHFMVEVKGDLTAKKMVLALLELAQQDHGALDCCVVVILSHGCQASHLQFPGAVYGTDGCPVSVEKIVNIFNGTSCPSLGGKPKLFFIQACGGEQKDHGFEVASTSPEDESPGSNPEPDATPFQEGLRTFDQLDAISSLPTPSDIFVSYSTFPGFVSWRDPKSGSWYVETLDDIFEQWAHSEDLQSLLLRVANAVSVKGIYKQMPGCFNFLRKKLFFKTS
Description: (§3) Table III below presents Ki(app) values for select AB compounds. Ki(app) values (also called Kass or Kobs/I) represent the speed of inhibitor binding to a target enzyme. Units are [M^−1s^−1]. NI indicates no inhibition at concentrations tested. Parent compounds AB09, ABo8, and AB07 that include the optimal substrate specificity sequences for caspases-3, […] as determined by Thornberry and colleagues (Thornberry et al., 19970 are included between double lines.
(§4) The inhibitors AB07 (NP-LEHD-AOMK, caspase-9), AB08 (NP-LETD-AOMK, caspase-8), and AB09 (NP-DEVD-AOMK, caspase-3) were synthesized and kinetic inhibition constants (Kiapp) were obtained for all compounds for caspases 3, 7, 8 and 9 using the progress curve method for pseudo-first order reactions kinetics (Salvesen, 1989) (structures shown in Table I). […] Ki(app) values (also called Kass or Kobs/I) represent the speed of inhibitor binding to a target enzyme. Units are [M-1s-1]. NI indicates no inhibition at concentrations tested, ND indicates data not determined, SD indicates standard deviation.
(§5) Compound screening was completed using the progress curve method as described (Salvesen, 1989). All screening was carried out in caspase reaction buffer. The caspase-9 specific compounds AB38, 40, 41 and 42 were screened in caspase reaction buffer and in caspase buffer with 1M sodium citrate instead of sucrose as described (Pop, 2006) The concentrations of active caspases used is as follows: 5 nM active caspase-3, 5 nM active caspase-7, 10 nM active caspase-8, and 50 nM active caspase-9. To ensure full activation, caspases 3/7, 8 and 9 were preincubated at 37° C. for 5, 10, or 40 minutes respectively before kinetic measurements were made.

[4] = system: Myocardial infarction and the resulting death of myocytes; details: animal models; cited from earlier work
[5] = system: death receptor-mediated liver injury; details: animal models; cited from earlier work
Caspase-7 = target: T4, Caspase-7 (Homo sapiens, UniProt P55210); test: Kinetic compound screening, progress curve method, caspase-7; type: biochemical
T4 sequence (P55210 1-303): T2 sequence (P55210 1-303)
Description: as §3, §4, §5

Caspase-8 = Caspase-8 (Homo sapiens, UniProt Q14790); test: Kinetic compound screening, progress curve method, caspase-8; type: biochemical
Caspase-8, sequence (Q14790 217-479): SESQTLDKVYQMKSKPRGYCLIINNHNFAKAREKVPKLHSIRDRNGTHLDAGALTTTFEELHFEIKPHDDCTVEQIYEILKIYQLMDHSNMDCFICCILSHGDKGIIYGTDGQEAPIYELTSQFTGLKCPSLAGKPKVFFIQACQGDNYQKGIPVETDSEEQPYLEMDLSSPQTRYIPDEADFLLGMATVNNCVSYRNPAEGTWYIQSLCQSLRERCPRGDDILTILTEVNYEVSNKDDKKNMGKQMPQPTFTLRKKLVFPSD
Description: as §3, §4, §5

[6] = system: extrinsic and intrinsic apoptotic pathways after spinal cord injury; details: animal models; cited from earlier work
sepsis = details: mouse model; cited from earlier work
Caspase-3 = target: T5, Caspase-3 (Homo sapiens, UniProt P42574); test: Kinetic compound screening, progress curve method, caspase-3; type: biochemical
T5 sequence (P42574 29-175 limits assumed): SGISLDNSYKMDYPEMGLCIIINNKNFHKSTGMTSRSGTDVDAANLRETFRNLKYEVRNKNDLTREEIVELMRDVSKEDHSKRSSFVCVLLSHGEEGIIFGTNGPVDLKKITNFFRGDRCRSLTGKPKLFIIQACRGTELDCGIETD
T5 sequence (P42574 176-277 limits assumed): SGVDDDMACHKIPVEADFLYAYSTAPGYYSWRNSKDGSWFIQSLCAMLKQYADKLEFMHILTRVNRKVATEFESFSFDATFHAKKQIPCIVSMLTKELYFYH
Description: as §3, §4, §5

block of KMB01 labeling of mature p20 caspase-7 [1]: incomplete inhibition | inhibition of FL-C7 labeling [2]: relatively insensitive to inhibition
Molecule: Cc1cccc(C)c1C(=O)OCC(=O)[C@H](CC(=O)O)NC(=O)[C@@H](NC(=O)[C@H](Cc1ccncc1)NC(=O)Cc1ccccc1)C(C)C [AB37, Cbz-3-V-D-AOMK]

Molecule: CC[C@H](NC(=O)[C@@H](CCC(=O)O)NC(=O)Cc1ccc(O)c([N+](=O)[O-])c1)C(=O)N[C@@H](CC(=O)O)C(=O)COC(=O)c1c(C)cccc1C [AB46, Np-E-8-D-AOMK]
in vivo labeling in kidney and spleen (cathepsin B and legumain): significant labeling of both legumain and cathepsin B

Molecule: Cy5-hex-EPD-AOMK [AB50-Cy5]
direct labeling of off targets in RAW cell extracts [3]: only labels legumain

block of KMB01 labeling of mature p20 caspase-7 [1]: efficiently blocked labeling | inhibition of FL-C7 labeling [2]: almost totally inhibited
Molecule: Cc1cccc(C)c1C(=O)OCC(=O)[C@H](CC(=O)O)NC(=O)[C@@H](NC(=O)[C@H](CCC(=O)O)NC(=O)Cc1ccc(O)c([N+](=O)[O-])c1)C(C)C [AB45, Np-E-V- D-AOMK]

Molecule: COC(=O)C[C@H](NC(=O)[C@H](C)NC(=O)[C@@H](NC(=O)OCc1ccccc1)C(C)C)C(=O)CF [ZVAD-fmk, benzyloxycarbonyl-Val-Ala-Asp-fluoromethylketone, reference compound] (Cbz-Val-Ala-Asp(OMe)-CH2F)
Ki(app) Caspase-9 (Caspase-9; Table III, Ki(app) = Kass or Kobs/I, 50 nM active caspase-9): <5,000 M^−1s^−1 | Caspase-9 Ki (app) (Caspase-9; Table IV): <5,000 M-1s-1 | effect on myocardial infarction and death of myocytes [4]: ameliorated | protection against liver injury [5]: protective and efficiently blocked death receptor-mediated liver injury | Ki(app) Caspase-7 (Caspase-7; Table III, Ki(app) = Kass or Kobs/I, 5 nM active caspase-7): <5,000 M^−1s^−1 | Caspase-7 Ki (app) (Caspase-7; Table IV): <5,000 M-1s-1 | Ki(app) Caspase-8 (Caspase-8; Table III, Ki(app) = Kass or Kobs/I, 10 nM active caspase-8): 203286 M⁻¹ s⁻¹ | Caspase-8 Ki (app) (Caspase-8; Table IV, NI = no inhibition at concentrations tested): 203,286 M-1s-1 | effect after spinal cord injury [6]: reduced lesion size and improved motor function | effect on sepsis (sepsis): efficiently reduced | Ki(app) Caspase-3 (Caspase-3; Table III, Ki(app) = Kass or Kobs/I, 5 nM active caspase-3): 25922 M⁻¹ s⁻¹ | Caspase-3 Ki(app) (Caspase-3; Table IV): 25,922 M-1s-1
